Structures can show the parent of a compound that is named as a salt.
How the values were obtained:
mice [1] = assay: Rotating cylinder test, muscle-relaxing and coordination inhibitory effects; format: in vivo; details: 200 mgm/kg p.o.
mice [2] = assay: Hexobarbital narcosis, loss of the righting reflex; format: in vivo; details: 25 mgm/kg p.o.
Source text: Compound C has no effect on the hexobarbital narcosis in mice.

[3] = tested on: isolated, beating atrium of the rat heart; assay: Isolated, beating atrium
Description: (§1) The compound C had no effect on the contractility and the frequency of the isolated, beating atrium of the rat heart. When compound C was given in doses of 1.0 and 3.0 and 10.0 mg/kg i.v. no effect on blood pressure, heart rate and respiration of anesthetized cats could be observed. At concentrations of 1×10^-4 mol/liter compound C had no effect on the ADP-induced, thrombine-induced and collagen-induced aggregation of the thrombozytes in the platelet-rich plasma of healthy test persons.

anesthetized cats = assay: Blood pressure, heart rate and respiration of anesthetized cats; format: in vivo; details: anesthetized cats, 1.0, 3.0 and 10.0 mg/kg i.v.
Description: as §1

fungi = assay: Fungistatic effect
[4] = Evaluation of taste quality
Source text: They often have a side-taste or after-taste. Novel compounds A to F are, however, characterized by a very pure sweet taste.

mice [5] = assay: Tail clamp test according to Haffner, defensive reactions to pain stimuli; format: in vivo; details: 200 mgm/kg p.o.
male mice = assay: Hypothermia caused by reserpine; format: in vivo
Source text: It also has no influence on the hypothermia of male mice, which is caused by reserpine.

[6] = tested on: Salmonella typhimurium TA 98, TA 100, TA 1535, TA 1537, TA 1538; assay: AMES-system, test for mutagenic effects, Salmonella typhimurium; format: cell-based
Description: Compounds C and D were tested in the AMES-system [Mutation Research 31, 347-364 (1975)] with regard to their mutagenic properties. In order to show the whole spectrum of induced molecular DNA-damages (base substitutions, frame-shift mutations, deletions) the auxotrophic bacterial strains Salmonella typhimurium TA 98, TA 100 and Escherichia coli WP 2 (P) were used as genetic indicators. The strains Salmonella typhimurium TA 1535, TA 1537 and TA 1538 were additionally used in the test of compound C.
(§2) The test for all microorganisms were carried out in a way such that the influence of a microsomal enzyme system, together with the corresponding co-factors, could be tested with regard to the test substance, and to determine the differences in enzyme induction. The tests were performed without an activating system and in the presence of an activating system. For the in vitro-activation, S-9 supernatants (fraction of the endoplasmatic reticulum) of normal, i.e. not pre-treated rats and of Aroclor 1254 (500 mg/kg) induced rats were used. From the S-9 induced fraction, 3 different concentration levels were tested.
(§3) The substance concentrations of compound C were 0.1 and 0.5 mgm/plate and the concentrations of compound D were 5, 10, 15 and 20 mg/plate.

eye of the rabbit = assay: Local compatibility in the eye; format: in vivo; details: 1% solution
mice [7] = assay: Spontaneous motility in light beam cages; format: in vivo; details: same dosage (200 mgm/kg p.o.)
[8] = tested on: intestinal tract of the rat; assay: Ulcerations in the intestinal tract; format: in vivo; details: 3 times 200 mgm/kg p.o.
rat = assay: Orienting acute toxicity, oral, rat; format: in vivo; details: 5000 mgm/kg oral, 6 animals
Description: The acute toxicity was determined after oral administration to male and female mice and to male and female rats. The substances were given in an aqueous solution or as a suspension in tylose.

rats = assay: Spontaneous motility in electric activity cages (Fuhrer and Feldhofer); format: in vivo
Description: (§4) Also, the test of the motility of rats in electric activity cages according to Fuhrer and Feldhofer [Arzneim. Forsch. […] Moreover, no effect regarding the body temperatures of the rats at a dosage of 200 mg/kg p.o. could be observed. The measurements were made after 1, 2, 3 and 4 hours after oral administration of the substance; one control group only received the distilled water solvent.

microorganism growth = assay: Series dilution essay, inhibition of the microorganism growth; format: cell-based; details: highest dosages (C 0.5 mgm/plate, D 20 mg/plate)
Description: as §3

[9] = tested on: thrombozytes in the platelet-rich plasma of healthy test persons; assay: Thrombozyte aggregation in platelet-rich plasma; format: cell-based; details: 1×10^-4 mol/liter
Description: as §1

[10] = tested on: Escherichia coli WP 2 (P); assay: AMES-system, test for mutagenic effects, Escherichia coli; format: cell-based
Description: In order to show the whole spectrum of induced molecular DNA-damages (base substitutions, frame-shift mutations, deletions) the auxotrophic bacterial strains Salmonella typhimurium TA 98, TA 100 and Escherichia coli WP 2 (P) were used as genetic indicators.
as §2, with “For the in vitro-activation, S-9 supernatants (fraction of the endoplasmatic reticulum) of normal, i.e. not pre-treated rats and of Aroclor 1254 (500 mg/kg) induced rats were used.” left out

bacteria = assay: Bacteriostatic effect
mice [11] = assay: Electroshock convulsion; format: in vivo; details: 200 mgm/kg p.o.
Body temperature = format: in vivo; details: rats, 200 mg/kg p.o.; 1, 2, 3 and 4 hours after administration
Description: as §4

[12] = Determination of the threshold concentration (taste testers, Schutz and Pilgrim method); set-up: key: mean of 5 testers; 0 = not sweet, 3 = very sweet
Description: From novel compounds A, B, C, D, E and F and from known comparison compounds U, V and W aqueous solutions in concentrations of 1:12500, 1:25000, 1:50000, 1:100000 and 1:200000 were prepared and evaluated by each of 5 taste testers according to the following criteria: Very sweet (=3 points); medium sweet (=2 points), slightly sweet (=1 point) and not sweet (=0 point). The tests were carried out according to the method of H. G. Schutz and F. J. Pilgrim [Food Research 22, 206 (1957)]. The dilution with perceptible sweetness was defined as the concentration at which the average value reached the evaluation points 1.0 or higher.

water-loaded male rats = assay: Secretion of Na+, K+, Cl- and liquid in water-loaded rats; format: in vivo; details: 200 mgm/kg p.o.
[13] = Determination of the relative sweetening power in comparison to saccharose (taste testers, 3% saccharose solution); details: compared with 3% aqueous solution of saccharose
Source text: The relative sweetening power (often also defined as degree of sweetness) of sweetening agents in comparison to saccharose (cane sugar) varies with the concentrations within wide limits. Thus, in the usual concentrations (corresponding to a 2-10% solution of saccharose) the relative sweetening power of saccharin varies from 200 to 700. Therefore, for the determination of the relative sweetening power of the above-mentioned compounds a 3% aqueous solution of saccharose was always used for comparison.
The further determination of the relative sweetening power was continued according to the methods of R. Pauli [Chemiker Zeitung 44, 744 (1920)] and T. Paul [Chemiker-Zeitung 45 38 (1921)]. Each test series was tested by 4 taste testers.

[14] = usual concentrations, corresponding to a 2-10% solution of saccharose; cited from earlier work
[15] = Batzinger, On and Bueding, Science 198, 944 (1977); cited from earlier work
[16] = heretofore known sweetening agents; cited from earlier work

Cc1cc2c(s1)S(=O)(=O)NC2=O [Compound C, 5-Methyl-thieno[3,2-d]isothiazole-3-(2H)-one-1,1-dioxide sodium salt]
ability to hold themselves in rotating cylinders (mice [1]): able to hold themselves in rotating cylinders
muscle-relaxing and coordination inhibitory effects (mice [1]): no muscle-relaxing and coordination inhibitory effects
duration of hexobarbital narcosis (loss of the righting reflex) (mice [2]): not influenced
effect on contractility [3]: no effect
effect on frequency [3]: no effect
effect on blood pressure (anesthetized cats): no effect
effect on heart rate (anesthetized cats): no effect
effect on respiration (anesthetized cats): no effect
fungistatic effect (fungi): neither bacteriostatically nor fungistatically effective
taste quality compared with saccharose (cane sugar) [4]: achieve the taste quality of saccharose
influence on the defensive reactions to pain stimuli (mice [5]): did not show any influence
influence on reserpine hypothermia (male mice): no influence
release of base substitutions ([6]; S. typhimurium TA 1535, TA 100): do not release base substitutions
release of frame-shift mutations ([6]; S. typhimurium TA 1537, TA 1538, TA 98): do not release
increase in the spontaneous mutation rate ([6]; Salmonella strains, C 0.1 and 0.5 mgm/plate, D 5-20 mg/plate, with and without activating system): did not lead to an increase
colonies counted on the substance plates ([6]; all test strains): within the spontaneous range
effect of the enzyme induction and of the activating fraction on the reverse mutation rate ([6]; all tested strains, S-9 of normal and Aroclor 1254 induced rats): not detectable
mutagenic potential ([6]; conclusion over all tested strains): do not indicate a mutagenic potential
local anesthesia (eye of the rabbit): no local anesthesia
mydriasis (eye of the rabbit): no mydriasis
redness of the conjunctiva (eye of the rabbit): no redness of the conjunctiva
influence on spontaneous motility (mice [7]): does not influence the spontaneous motility of mice
ulcerations in the intestinal tract [8]: does not cause any ulcerations
Animals which died within the observation time, 1 day (rat): 0 animals
Animals which died within the observation time, 7 days (rat): 0 animals
effect on spontaneous motility (rats): did not show any effect on the spontaneous motility
inhibition of the microorganism growth (microorganism growth): did not show any inhibition
effect on ADP-induced aggregation of thrombozytes [9]: no effect
effect on collagen-induced aggregation of thrombozytes [9]: no effect
effect on thrombine-induced aggregation of thrombozytes [9]: no effect
release of base substitutions ([10]; E. coli WP2 (P)): do not release base substitutions
increase in the spontaneous mutation rate ([10]; E. coli WP 2 (P), C 0.1 and 0.5 mgm/plate, D 5-20 mg/plate, with and without activating system): did not lead to an increase
bacteriostatic effect (bacteria): neither bacteriostatically nor fungistatically effective
influence on electroshock convulsion (mice [11]): does not influence
effect on body temperature (Body temperature): no effect
Average Value of Evaluation Points ([12]; concentration 1:25000, sodium salt): 2.0
Average Value of Evaluation Points ([12]; concentration 1:50000, sodium salt): 1.2
secretion of Cl^- (water-loaded male rats): no effect
secretion of K^+ (water-loaded male rats): no effect
secretion of Na^+ (water-loaded male rats): no effect
secretion of liquid (water-loaded male rats): no effect

O=C1NS(=O)(=O)c2ccccc21 [V, Saccharin, reference compound]
Relative Sweetening Power (Saccharose = 1) [13]: 550
relative sweetening power of saccharin [14]: 200 to 700
mutagenic effect [15]: shows a mutagenic effect
side-taste or after-taste [16]: unpleasant after-taste
taste quality compared with saccharose [16]: do not have the taste quality of saccharose
Average Value of Evaluation Points ([12]; concentration 1:25000): 2.4
Average Value of Evaluation Points ([12]; concentration 1:50000): 1.2
Average Value of Evaluation Points ([12]; concentration 1:100000): 0.4

— patent publication US4430355A, “Condensed isothiazolo-3 (2H)-one-1-1-dioxides” (priority 1977, dated 1984)
